Laboratory results published in patent US20250019387A1 (Frontier Medicines Corporation, priority 0001, published 2025).

Each compound was assayed against KRAS G12C and cRAF (Ras-binding domain) interaction (Homo sapiens (Human), UniProt P01116, C118S/C51S/C80L/G12C) (assay: Inhibition of KRAS G12C and cRAF binding (AlphaScreen)). Settings: not given.
Chain of KRAS G12C and cRAF (Ras-binding domain) interaction (P01116 other isoform, or with tags, fused parts or gaps G12C/C51S/C80L/C118S): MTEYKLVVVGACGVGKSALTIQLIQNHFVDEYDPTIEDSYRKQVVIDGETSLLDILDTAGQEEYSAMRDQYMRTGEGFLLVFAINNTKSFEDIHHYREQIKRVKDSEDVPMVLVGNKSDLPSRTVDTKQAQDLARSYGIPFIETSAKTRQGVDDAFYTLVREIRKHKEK
In short: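 Compounds (DMSO) preincubated 19-20 h at room temperature, then RBD with streptavidin donor and glutathione acceptor beads added in 25 mM Hepes pH 7.4, 150 mM NaCl, 5 mM MgCl2, 0.01% Triton X-100, 2% DMSO for 60-90 min. Emission 570 nm (excitation 680 nm); IC50 by 4-parameter fit. Counter-screen used biotin-AviTag-GST instead of RBD.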
`C=CC(=O)N1CC[C@@H](N(CC(F)F)c2nc(OC[C@@]34CCCN3C[C@H](F)C4)nc3c(F)c(-c4cccc5cccc(Cl)c45)ncc23)C1` [Example 194, 1-((R)-3-((7-(8-chloronaphthalen-1-yl)-8-fluoro-2-(((2R,7aS)-2-fluorotetrahydro-1H-pyrrolizin-7a(5H)-yl)methoxy)pyrido[4,3-d]pyrimidin-4-yl)(2,2-difluoroethyl)amino)pyrrolidin-1-yl)prop-2-en-1-one] gave an IC50 of 10 to 100 nM.

Same assay, conditions: GMPPNP-loaded KRAS G12C, 19-20 hours incubation with compound; read-out: IC50 (Inhibition of KRAS G12C and cRAF Binding)
`C=CC(=O)N1C[C@H](N(C)c2nc(OC[C@@]34CCCN3C[C@H](F)C4)nc3c(F)c(-c4cccc5cccc(Cl)c45)ncc23)C(F)(F)C1` [Example 239, 1-((S)-4-((7-(8-chloronaphthalen-1-yl)-8-fluoro-2-(((2R,7aS)-2-fluorotetrahydro-1H-pyrrolizin-7a(5H)-yl)methoxy)pyrido[4,3-d]pyrimidin-4-yl)(methyl)amino)-3,3-difluoropyrrolidin-1-yl)prop-2-en-1-one] showed an IC50 of 10 to 100 nM. `C#Cc1c(F)ccc2cccc(-c3ncc4c(N(C)[C@@H]5CCN(C(=O)C=C)C5)nc(OCC56CCCN5CCC6)nc4c3F)c12` [Example 303, (R)-1-(3-((7-(8-ethynyl-7-fluoronaphthalen-1-yl)-8-fluoro-2-((tetrahydro-1H-pyrrolizin-7a(5H)-yl)methoxy)pyrido[4,3-d]pyrimidin-4-yl)(methyl)amino)pyrrolidin-1-yl)prop-2-en-1-one] was tested, and the IC50 was under 10 nM. Work on `C=CC(=O)N1CC[C@@H](N(C)c2nc(OC[C@@]34CCCN3C[C@H](F)C4)nc3c(F)c(-c4cccc5cc(F)c(F)cc45)ncc23)C1` [Example 266, 1-((R)-3-((7-(6,7-difluoronaphthalen-1-yl)-8-fluoro-2-(((2R,7aS)-2-fluorotetrahydro-1H-pyrrolizin-7a(5H)-yl)methoxy)pyrido[4,3-d]pyrimidin-4-yl)(methyl)amino)pyrrolidin-1-yl)prop-2-en-1-one] yielded an IC50 of 100 to 500 nM. For `C#Cc1c(F)ccc2cccc(-c3ncc4c(N(C)[C@@H]5CCN(C(=O)/C=C/CN6[C@@H]7CC[C@H]6COC7)C5)nc(OC[C@@]56CCCN5C[C@H](F)C6)nc4c3F)c12` [Example 292, (E)-4-((1R,5S)-3-oxa-8-azabicyclo[3.2.1]octan-8-yl)-1-((R)-3-((7-(8-ethynyl-7-fluoronaphthalen-1-yl)-8-fluoro-2-(((2R,7aS)-2-fluorotetrahydro-1H-pyrrolizin-7a(5H)-yl)methoxy)pyrido[4,3-d]pyrimidin-4-yl)(methyl)amino)pyrrolidin-1-yl)but-2-en-1-one], the IC50 was under 10 nM. For `CN(c1nc(OCC23CCCN2CCC3)nc2c1CCN(c1cccc3cccc(Cl)c13)C2)[C@@H]1CCN(C(=O)/C=C/c2nc([C@H]3C[C@@H]3F)no2)C1` [Example 141, (E)-1-((R)-3-((7-(8-chloronaphthalen-1-yl)-2-((hexahydro-1H-pyrrolizin-7a-yl)methoxy)-5,6,7,8-tetrahydropyrido[3,4-d]pyrimidin-4-yl)(methyl)amino)pyrrolidin-1-yl)-3-(3-((1R,2S)-2-fluorocyclopropyl)-1,2,4-oxadiazol-5-yl)prop-2-en-1-one], the IC50 was 10 to 100 nM. Compound `C=CC(=O)N1C[C@H](C)[C@@H](N(C)c2nc(OC[C@@]34CCCN3C[C@H](F)C4)nc3c(F)c(-c4cccc5cccc(Cl)c45)ncc23)C1` [Example 189, 1-((3R,4S)-3-((7-(8-chloronaphthalen-1-yl)-8-fluoro-2-(((2R,7aS)-2-fluorotetrahydro-1H-pyrrolizin-7a(5H)-yl)methoxy)pyrido[4,3-d]pyrimidin-4-yl)(methyl)amino)-4-methylpyrrolidin-1-yl)prop-2-en-1-one] has an IC50 of 100 to 500 nM. For `Cc1nccc(/C=C/C(=O)N2CC[C@@H](N(C)c3nc(OC[C@@]45CCCN4C[C@H](F)C5)nc4c(F)c(-c5cccc6ccc(F)c(Cl)c56)ncc34)C2)n1` [Example 270, (E)-1-((R)-3-((7-(8-chloro-7-fluoronaphthalen-1-yl)-8-fluoro-2-(((2R,7aS)-2-fluorotetrahydro-1H-pyrrolizin-7a(5H)-yl)methoxy)pyrido[4,3-d]pyrimidin-4-yl)(methyl)amino)pyrrolidin-1-yl)-3-(2-methylpyrimidin-4-yl)prop-2-en-1-one], the IC50 was 10 to 100 nM. Work on `CN(c1nc(OCC23CCCN2CCC3)nc2c(F)c(-c3cccc4cccc(Cl)c34)ncc12)[C@@H]1CCN(C(=O)/C=C/c2nc([C@H]3C[C@@H]3F)no2)C1` [Example 129, (E)-1-((R)-3-((7-(8-chloronaphthalen-1-yl)-8-fluoro-2-((tetrahydro-1H-pyrrolizin-7a(5H)-yl)methoxy)pyrido[4,3-d]pyrimidin-4-yl)(methyl)amino)pyrrolidin-1-yl)-3-(3-((1R,2S)-2-fluorocyclopropyl)-1,2,4-oxadiazol-5-yl)prop-2-en-1-one] yielded an IC50 of 10 to 100 nM. `Cc1cc(/C=C/C(=O)N2CC[C@@H](N(C)c3nc(OC[C@@]45CCCN4C[C@H](F)C5)nc4c(F)c(-c5cccc6cccc(Cl)c56)ncc34)C2)nc(C)n1` [Example 204, (E)-1-((R)-3-((7-(8-chloronaphthalen-1-yl)-8-fluoro-2-(((2R,7aS)-2-fluorohexahydro-1H-pyrrolizin-7a-yl)methoxy)pyrido[4,3-d]pyrimidin-4-yl)(methyl)amino)pyrrolidin-1-yl)-3-(2,6-dimethylpyrimidin-4-yl)prop-2-en-1-one] was tested, and the IC50 was 100 to 500 nM.

Same assay, conditions: additional exemplary compounds; KRAS G12C and cRAF binding; read-out: RAF1 RBD IC50
Work on `C=CC(=O)N1CC[C@H]1CN(C)c1nc(OC[C@@]23CCCN2C[C@H](F)C3)nc2c(F)c(-c3cccc4cccc(Cl)c34)ncc12` yielded an IC50 of over 500 nM. Work on `CN(C)C/C=C/C(=O)N1CC(CN(C)c2nc(OCC34CCCN3CCC4)nc3c(F)c(-c4cccc5ccc(F)c(Cl)c45)ncc23)C1` yielded an IC50 of 10 to 100 nM. For `COC/C=C/C(=O)N1CC[C@@H](N(C)c2nc(OCC34CCCN3CCC4)nc3c(F)c(-c4cccc5cccc(Cl)c45)ncc23)C1`, the IC50 was 10 to 100 nM. Compound `C=CC(=O)N1C[C@H](N(C)c2nc(OCC34CCCN3CCC4)nc3c(F)c(-c4cccc5cccc(Cl)c45)ncc23)C[C@H]1C` has an IC50 of over 500 nM. In the case of `C=CC(=O)N1CCC(N(C)c2nc(OCC34CCCN3CCC4)nc3c2CCN(c2cccc4cccc(Cl)c24)C3)C1CC#N` (stereo not drawn), the IC50 is reported as over 500 nM. Work on `C=CC(=O)N1CCCC1CN(C)c1nc(OC[C@@]23CCCN2C[C@H](F)C3)nc2c(F)c(-c3cccc4cccc(Cl)c34)ncc12` (stereo partly drawn) yielded an IC50 of over 500 nM. `CN(c1nc(OCC23CCCN2CCC3)nc2c1CCN(c1cccc3cccc(Cl)c13)C2)[C@@H]1CCN(C(=O)/C=C/CN2CC(F)(F)C2)C1` was tested, and the IC50 was 100 to 500 nM. `CN(CCS(=O)(=O)/C=C/CC1CC1)c1nc(OCC23CCCN2CCC3)nc2c1CCN(c1cccc3cccc(Cl)c13)C2` gave an IC50 of over 500 nM. In the case of `CN(c1nc(OC[C@@]23CCCN2C[C@H](F)C3)nc2c(F)c(-c3cccc4cccc(Cl)c34)ncc12)[C@@H]1CCN(C(=O)/C=C/CN2CCCS2(=O)=O)C1`, the IC50 is reported as 100 to 500 nM. `C/C=C/C(=O)CCN(C)c1nc(OC[C@@H]2CCCN2C)nc2c1CCN(c1cccc3ccccc13)C2` was tested, and the IC50 was over 500 nM. Compound `O=C(/C=C/CN1CCOCC1)N1[C@@H]2CC[C@H]1CN(c1nc(OC[C@@]34CCCN3C[C@H](F)C4)nc3c(F)c(-c4cccc5cccc(Cl)c45)ncc13)C2` has an IC50 of over 500 nM. With `C=CC(=O)CN(C)c1nc(OC[C@@H]2CCCN2C)nc2c1CCN(c1cccc3ccccc13)C2` the IC50 was 100 to 500 nM. With `C=CC(=O)N1CC(N(C)c2nc(OC[C@@]34CCCN3C[C@H](F)C4)nc3c2CCN(c2cccc4cccc(Cl)c24)C3)C1` the IC50 was over 500 nM. In the case of `C=CC(=O)N1CC(CN(C)c2nc(OC[C@]34CCCN3C[C@H](F)C4)nc3c2CCN(c2cccc4cccc(Cl)c24)C3)C1`, the IC50 is reported as 100 to 500 nM.
